Data taken from the supplement of paper PMC4862054.
Several values for one entry are separate records, joined by “and”; a condition that tells them apart may be missing. Equal values may be shown once.

Experiments:
Settings in all cases: incubation time: 72 h
MDA-MB-468 [1] = assay: normalised viability (% of control), CellTiter-Blue; higher = more viable cells (about 100 = DMSO control)
Procedure: (§1)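 DSRT, CellTiter-Blue viability, 72 h incubation. Signal is normalised to DMSO and benzethonium chloride controls. Value is the normalised response at dose 3.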

MFM-223 [2] = assay: as above
Procedure: as §1

BT-549 [3] = assay: as above
Procedure: as §1

DU-4475 = assay: normalised viability (% of control), CellTiter-Blue; higher = more viable cells (about 100 = DMSO control)
How it was run: (§2)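 The reported figure is normalised viability at a single listed concentration of the series. Breast cancer cell lines (20 µl suspension) went onto 384-well plates holding compound in 5 µl medium for 72 h. CellTiter-Blue (2.5 µl, 2 h, 37 °C) was read by fluorescence at 560/590 nm, and each plate was scaled to vehicle at 100 and a positive kill control at 0.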

CAL-120 = assay: as above
How it was run: as §2

CAL-51 = assay: as above
How it was run: as §2

BT-474 = assay: as above
How it was run: as §2

MDA-MB-231 [4] = assay: as above
How it was run: as §2

MDA-MB-436 = assay: as above
How it was run: as §2

HCC1599 = assay: as above
How it was run: as §2

SK-BR-3 = assay: as above
How it was run: as §2

MDA-MB-468 [5] = assay: as above; remark: listed apart in the source
How it was run: as §2

MDA-MB-453 = assay: as above
How it was run: as §2

Hs578T = assay: as above
How it was run: as §2

HDQ-P1 = assay: as above
How it was run: as §2

CAL-148 = assay: as above
How it was run: as §2

MFM-223 [6] = assay: as above; remark: listed apart in the source
How it was run: as §2

CAL-85-1 = assay: as above
How it was run: as §2

HCC1143 = assay: as above
How it was run: as §2

BT-549 [7] = assay: as above; remark: listed apart in the source
How it was run: as §2

HCC1937 = assay: as above
How it was run: as §2

MDA-MB-231 [8] = assay: drug sensitivity score (DSS), CellTiter-Blue viability (DSS (AUC-based score)); higher = stronger viability inhibition; extreme values may be limits of the assay
How it was run: (§3)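 The drug sensitivity score was derived from the area under a fitted dose-response curve. To obtain the curves, breast cancer cells (20 µl suspension) were plated into 384-well plates with compound at 5 or 9 concentrations and kept for 72 h. Viability was measured by CellTiter-Blue fluorescence at 560/590 nm, with each plate normalised to 0.1 % DMSO and a positive kill control.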

MFM-223 [9] = assay: as above
How it was run: as §3

C[C@]12C=CC(=O)C=C1CC[C@@H]1[C@@H]2[C@@H](O)C[C@@]2(C)[C@H]1CC[C@]2(O)C(=O)CO [Prednisolone]
Settings | normalised viability [%]
BT-474, 10 nM | 125
BT-474, 1000 nM | 98.8
BT-474, 10000 nM | 100
BT-549 [3], 100 nM | 104
BT-549 [7], 10 nM | 111
BT-549 [7], 1000 nM | 92.2
BT-549 [7], 10000 nM | 105
CAL-51, 3 nM | 102
CAL-51, 30 nM | 98.3
CAL-51, 100 nM | 98.4
CAL-85-1, 3 nM | 101
CAL-85-1, 30 nM | 105
CAL-85-1, 100 nM | 119
CAL-120, 10 nM | 87.5
CAL-120, 1000 nM | 73.7
CAL-120, 10000 nM | 86.8
CAL-148, 3 nM | 93.8
CAL-148, 30 nM | 118
CAL-148, 100 nM | 107
DU-4475, 3 nM | 107
DU-4475, 30 nM | 116
DU-4475, 100 nM | 98.1
HCC1143, 10 nM | 98
HCC1143, 1000 nM | 87.9
HCC1143, 10000 nM | 96.3
HCC1599, 10 nM | 111
HCC1599, 1000 nM | 92.2
HCC1599, 10000 nM | 84.9
HCC1937, 10 nM | 91.7
HCC1937, 1000 nM | 108
HCC1937, 10000 nM | 99.1
HDQ-P1, 3 nM | 112
HDQ-P1, 30 nM | 124
HDQ-P1, 100 nM | 108
Hs578T, 10 nM | 111
Hs578T, 1000 nM | 107
Hs578T, 10000 nM | 107
MDA-MB-231 [4], 10 nM | 113
MDA-MB-231 [4], 1000 nM | 129
MDA-MB-231 [4], 10000 nM | 117
MDA-MB-436, 10 nM | 82.4
MDA-MB-436, 1000 nM | 73.5
MDA-MB-436, 10000 nM | 108
MDA-MB-453, 3 nM | 107
MDA-MB-453, 30 nM | 106
MDA-MB-453, 100 nM | 95.5
MDA-MB-468 [1], 100 nM | 108
MDA-MB-468 [5], 10 nM | 102
MDA-MB-468 [5], 1000 nM | 115
MDA-MB-468 [5], 10000 nM | 101
MFM-223 [2], 100 nM | 97
MFM-223 [6], 10 nM | 95.7
MFM-223 [6], 1000 nM | 100
MFM-223 [6], 10000 nM | 96.9
SK-BR-3, 10 nM | 114
SK-BR-3, 1000 nM | 101
SK-BR-3, 10000 nM | 89.3

Settings | drug sensitivity score
MDA-MB-231 [8] | 0
MFM-223 [9] | 0

CCN(CC)CCNC(=O)c1c(C)[nH]c(/C=C2\C(=O)Nc3ccc(F)cc32)c1C [Sunitinib]
Settings | normalised viability
BT-474, 1 nM | 110% and 97.1%
BT-474, 100 nM | 115% and 92.5%
BT-549 [3], 10 nM | 96.5% and 73.3%
BT-549 [7], 1 nM | 90.8% and 103%
BT-549 [7], 100 nM | 92.6% and 88.2%
BT-549 [7], 1000 nM | 89.9% and 111%
CAL-51, 0.3 nM | 116% and 93.3%
CAL-51, 10 nM | 107% and 91.1%
CAL-85-1, 0.3 nM | 92% and 101%
CAL-85-1, 3 nM | 90.5% and 104%
CAL-85-1, 10 nM | 98.1% and 98.9%
CAL-120, 1000 nM | 88.6% and 104%
CAL-148, 0.3 nM | 92.3% and 103%
CAL-148, 3 nM | 90.1% and 97.4%
CAL-148, 10 nM | 89.6% and 111%
DU-4475, 0.3 nM | 99.7% and 88.2%
DU-4475, 3 nM | 92.5% and 88.1%
DU-4475, 10 nM | 108% and 95.7%
HCC1143, 100 nM | 84.3% and 106%
HCC1599, 1 nM | 113% and 97.3%
HCC1599, 100 nM | 85.4% and 102%
HCC1599, 1000 nM | 101% and 90.8%
HCC1937, 1 nM | 93.7% and 84.2%
HCC1937, 100 nM | 82.3% and 102%
HCC1937, 1000 nM | 84.5% and 93.2%
HDQ-P1, 0.3 nM | 101% and 95.9%
HDQ-P1, 3 nM | 85.3% and 98.3%
Hs578T, 1 nM | 106% and 100%
Hs578T, 100 nM | 103% and 113%
Hs578T, 1000 nM | 108% and 107%
MDA-MB-231 [4], 1 nM | 90.4% and 86.8%
MDA-MB-231 [4], 100 nM | 89% and 90.3%
MDA-MB-231 [4], 1000 nM | 114% and 112%
MDA-MB-436, 1 nM | 94.5% and 114%
MDA-MB-436, 100 nM | 85.8% and 110%
MDA-MB-436, 1000 nM | 98.5% and 108%
MDA-MB-453, 3 nM | 90.5% and 94.7%
MDA-MB-453, 10 nM | 95.2% and 82%
MDA-MB-468 [1], 10 nM | 100% and 107%
MDA-MB-468 [5], 1 nM | 104% and 89.3%
MDA-MB-468 [5], 100 nM | 104% and 95.4%
MDA-MB-468 [5], 1000 nM | 100%
MFM-223 [2], 10 nM | 93.5% and 87.9%
MFM-223 [6], 1 nM | 101% and 105%
MFM-223 [6], 100 nM | 91.4% and 96.6%
MFM-223 [6], 1000 nM | 62.7% and 68.1%
SK-BR-3, 1 nM | 94.8% and 101%
SK-BR-3, 100 nM | 98.3% and 96.8%
SK-BR-3, 1000 nM | 90.2% and 90.4%

Settings | drug sensitivity score
MDA-MB-231 [8] | 0
MFM-223 [9] | 0

CC[C@@]1(O)C(=O)OCc2c1cc1n(c2=O)Cc2cc3c(CN(C)C)c(O)ccc3nc2-1 [Topotecan]
Settings | normalised viability [%]
BT-474, 1 nM | 127
BT-474, 100 nM | 112
BT-474, 1000 nM | 77.9
BT-549 [3], 10 nM | 107
BT-549 [7], 1 nM | 85.9
BT-549 [7], 100 nM | 75.3
BT-549 [7], 1000 nM | 62.9
CAL-51, 0.3 nM | 99
CAL-51, 3 nM | 96.5
CAL-51, 10 nM | 96.8
CAL-85-1, 0.3 nM | 93.2
CAL-85-1, 3 nM | 85.2
CAL-85-1, 10 nM | 96.9
CAL-120, 1 nM | 86.2
CAL-120, 100 nM | 54.8
CAL-120, 1000 nM | 32.1
CAL-148, 0.3 nM | 84.5
CAL-148, 3 nM | 111
CAL-148, 10 nM | 96.5
DU-4475, 0.3 nM | 88.4
DU-4475, 3 nM | 88.4
DU-4475, 10 nM | 78.5
HCC1143, 1 nM | 79.9
HCC1143, 100 nM | 79.1
HCC1143, 1000 nM | 41.9
HCC1599, 1 nM | 91.5
HCC1599, 100 nM | 82.3
HCC1599, 1000 nM | 64
HCC1937, 1 nM | 96.9
HCC1937, 100 nM | 40.6
HCC1937, 1000 nM | 26.2
HDQ-P1, 0.3 nM | 112
HDQ-P1, 3 nM | 105
HDQ-P1, 10 nM | 105
Hs578T, 1 nM | 132
Hs578T, 100 nM | 102
Hs578T, 1000 nM | 69.4
MDA-MB-231 [4], 1 nM | 97
MDA-MB-231 [4], 100 nM | 80.5
MDA-MB-231 [4], 1000 nM | 59.8
MDA-MB-436, 1 nM | 110
MDA-MB-436, 100 nM | 75.5
MDA-MB-436, 1000 nM | 44.6
MDA-MB-453, 0.3 nM | 103
MDA-MB-453, 3 nM | 107
MDA-MB-453, 10 nM | 102
MDA-MB-468 [1], 10 nM | 93
MDA-MB-468 [5], 1 nM | 108
MDA-MB-468 [5], 100 nM | 45.6
MDA-MB-468 [5], 1000 nM | 12.8
MFM-223 [2], 10 nM | 92.1
MFM-223 [6], 1 nM | 105
MFM-223 [6], 100 nM | 88.2
MFM-223 [6], 1000 nM | 53.5
SK-BR-3, 1 nM | 105
SK-BR-3, 100 nM | 48.7
SK-BR-3, 1000 nM | 24.8

Settings | drug sensitivity score
MDA-MB-231 [8] | 3.58
MFM-223 [9] | 0
